Assay results from US11807668B2, “Use of citronellol in preparing preparation for promoting expression of virulence gene Toxa of Pseudomonas aeruginosa” (priority 2021, dated 2023).

Columns and labels:
[1] = tested on: Pseudomonas aeruginosa PAO1; assay: Effects of citronellol on the growth of Pseudomonas aeruginosa PAO1 (growth curve, OD600, Bioscreen C); assay type: cell-based
Procedure: (§1) Preparation of PAO1[(Pseudomonas aeruginosa) PAO1] bacterial suspension: a culture solution of Pseudomonas aeruginosa PAO1 in an exponential growth phase was sampled, centrifuged, washed once with a PBS buffer, resuspended in PBS, and diluted to 10^8 CFU/mL to obtain the PAO1 bacterial suspension.
An LB culture medium and citronellol […] were added to test tubes respectively, and the PAO1 bacterial suspension in the exponential growth phase was inoculated to reach a total volume of 10 mL respectively. The bacterial concentration of PAO1 was each 10^6′ CFU/mL, and the concentration of citronellol was 0 (control), 0.313 μL/mL, 0.625 μL/mL, 1.25 μL/mL, and 2.5 μL/mL, respectively. Samples from several test groups were added to a honeycomb culture plate dedicated to an automatic growth curve analyzer (Bioscreen C), and 350 μL of culture solution was added to each well, with three parallel for each test group. The honeycomb culture plate was placed in the automatic growth curve analyzer, and cultured over shaking at 37° C. for 3 days, and OD600 was measured every hour. Taking OD600 as the ordinate and a culture time as the abscissa, the growth curve of PAO1 under the action of citronellol was drawn to study the effect of the citronellol on the growth of PAO1. The results were shown as in FIG. 1.

[2] = tested on: key genes of a quorum-sensing system of Pseudomonas aeruginosa and virulence genes regulated thereby (PAO1 cells); assay: Effects of citronellol on the expression of key quorum-sensing genes and virulence genes regulated thereby (real-time fluorescent quantitative PCR); assay type: cell-based; conditions: 1.25 μL/mL citronellol for 5 h
Procedure: as §1
The PAO1 bacterial suspension in a logarithmic growth phase was added to 50 mL of sterile LB liquid culture medium to reach a final concentration of 10^6 CFU/mL for the bacterial solution. Citronellol (β-citronellol) was added to reach the final concentrations of 0 (three biological replicates in the control group were named A1, A2, and A3, respectively) and 1.25 μL/mL (three biological replicates in the test groups were named B1, B2, B3). Each group was cultured at 37° C. and 180 rpm for 5 h, and centrifuged to collect bacteria, which were then quick-frozen at −80° C. for later use.
Total RNAs were extracted from the bacteria by a Trizol (Thermo Fisher Scientific) kit.
After extraction, the purity of the RNAs were detected with an ultra-micro spectrophotometer (Implen, Munich, Germany). An A260/A280 value of each RNA sample should be between 1.8 and 2.0. Reverse transcription and real-time fluorescent quantitative PCR amplification were carried out by using a PrimeScript RT Master Mix kit (Takara, Dalian, China) and an ETC 811 PCR instrument (Eastwin Life Sciences, Inc.). A q-PCR reaction system included Takara SYBR Premix Ex TaqII (Tli RNaseH Plus) (Code No. RR820A), and PCR procedures included: pre-denaturation at 95° C. for 30 s; and denaturation at 95° C. for 5 s and annealing at 60° C. for 34 s, 40 cycles. Based on 10 gene sequences published on the website of GenBank, primers for q-PCR were designed by using software Primer Premier 5.0, and at the same time, a 16S rRNA gene was used as an internal reference gene.

CC(C)=CCCC(C)CCO (stereo not drawn) [citronellol, β-citronellol]
time point when the absorbance value of the culture solution differs greatly (time to maximum absorbance) ([1]; 0.313 μL/mL): 26 h
time point when the absorbance value of the culture solution differs greatly (time to maximum absorbance) ([1]; 0.625 μL/mL): 37 h
time point when the absorbance value of the culture solution differs greatly (time to maximum absorbance) ([1]; 1.25 μL/mL): 39 h
time point when the absorbance value of the culture solution differs greatly (time to maximum absorbance) ([1]; 2.5 μL/mL): 48 h
inhibitory effect on the growth of PAO1 ([1]; citronellol at 0.313, 0.625, 1.25 and 2.5 μL/mL, LB, 37° C., 3 days, OD600): a certain yet weak inhibitory effect
difference in lag phase and logarithmic growth phase on the PAO1 growth curves ([1]; citronellol treatment groups at different concentrations (0.313-2.5 μL/mL)): no significant difference
expression of signaling molecule receptor protein gene lasR [2]: significantly up-regulated
expression of signaling molecule receptor protein gene pqsR [2]: significantly down-regulated
expression of signaling molecule synthase gene lasI [2]: significantly up-regulated
expression of signaling molecule synthase gene pgsA [2]: significantly down-regulated
transcription level of lasA [2]: up-regulated, but with a less significant change
transcription level of signaling molecule receptor protein gene rhIR [2]: significantly up-regulated
transcription level of signaling molecule synthase gene rhII [2]: changes a little
transcription level of toxA [2]: significantly up-regulated
transcription of virulence gene chiC [2]: inhibited
transcription of virulence gene lasB [2]: inhibited
transcription of virulence gene phzM [2]: inhibited
transcription of virulence gene psIB [2]: inhibited
